The results in this text go back to ChEMBL document CHEMBL1201862, “PubChem BioAssay data set” (2004).

Some test systems named below: KM12; SK-MEL-2; NCI-H522; SNB-19; PC-3; UO-31; NCI-H23; Hs-578T; NCI-H460; HT-29; OVCAR-4; CAKI-1; SR; SF-268; Malme-3M; HCT-15; LOX IMVI; M14; RXF 393; MDA-MB-231.
Assay in all cases: NCI anticancer screen, dose series, 48 h

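Cells were grown in 96-well plates and exposed to each compound for 48 hours at five concentrations; endpoints were interpolated linearly between bracketing concentrations, or set to the highest concentration if not reached. The concentration for 50% growth inhibition is given as GI50.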 The source made the active and inactive calls. No stated cut-off is given here; in the data, active = GI50 up to about 1.1 µM and inactive = higher. Square brackets hold non-standard residues; d marks the D form. Peptide text beside a SMILES is read from it. * marks the point of attachment. AllylGly = C=CC[CH](N)C(=O)O; Boc = CC(C)(C)OC(=O)*; OtBu = CC(C)(C)O*

`COc1ccc(CC2c3cc(Oc4cc(CC5c6cc(OC)c(OC)cc6CCN5C)ccc4O)c(OC)cc3CCN2C)cc1` (stereo not given): the GI50 in the assay with KM12 is 1.77 µM (inactive); in the assay with SK-MEL-2, 8.65 µM (inactive); in the assay with NCI-H522, 6.81 µM (inactive); in the assay on SNB-19, 6.1 µM (inactive); with PC-3, 5.47 µM (inactive); with UO-31, 5.25 µM (inactive). The GI50 in the assay on NCI-H23 is 8.18 µM (inactive); in the assay on Hs-578T, 9.62 µM (inactive); in the assay on NCI-H460 it was 6.98 µM (inactive); in the assay on HT-29, 2.06 µM (inactive); in the assay with OVCAR-4, 2.42 µM (inactive); in the assay with CAKI-1, 1.48 µM (inactive). The GI50 was 1.43 µM (inactive) with SR; 9.14 µM (inactive) in the assay on SF-268; 10.1 µM (inactive) in the assay with Malme-3M; 2.17 µM with HCT-15; 2.55 µM (inactive) in the assay on LOX IMVI; 5.64 µM (inactive) with M14. For the same compound, the GI50 in the assay on RXF 393 was 5.92 µM (inactive); with MDA-MB-231 it was 7.91 µM (inactive).
Regarding `C=CCC(NC(=O)C(CC(=O)OC(C)(C)C)NC(=O)OC(C)(C)C)C(=O)OC` (stereo not given) (Boc-Asp(OtBu)-[AllylGly]-OMe; configuration not given here), the GI50 is > 55.2 µM (inactive) in the assay with KM12; 73.3 µM (inactive) in the assay on SK-MEL-2; > 100 µM (inactive) with NCI-H522; > 100 µM (inactive) in the assay with SNB-19; > 100 µM (inactive) with PC-3; > 100 µM (inactive) in the assay with UO-31. Besides, the GI50 is > 94.8 µM (inactive) in the assay on NCI-H23; > 100 µM (inactive) in the assay with Hs-578T; > 100 µM (inactive) in the assay on NCI-H460; > 100 µM (inactive) in the assay on HT-29; > 100 µM (inactive) in the assay with OVCAR-4; > 100 µM (inactive) in the assay with CAKI-1. The GI50 in the assay with SR was 37.9 µM (inactive); in the assay on SF-268, 51.2 µM (inactive); with Malme-3M, 1.84 µM (inactive); in the assay on HCT-15, greater than 100 µM; in the assay on LOX IMVI, 20.9 µM (inactive); in the assay with M14, 20.2 µM (inactive). In addition, the GI50 in the assay with RXF 393 was 99.3 µM (inactive); in the assay on MDA-MB-231, > 100 µM (inactive).
